Laboratory results published in patent publication US12358908B2, “Crystals, preparation method and application of a muscarinic receptor antagonist” (BEIJING SHOWBY PHARMACEUTICAL CO., LTD., priority 2020, dated 2025).

Columns and labels:
[1] = target: T1, M2 receptor (Homo sapiens, UniProt P08172); settings: selective effect on M receptor subtypes; cited from earlier work
T1 sequence (P08172 1-466): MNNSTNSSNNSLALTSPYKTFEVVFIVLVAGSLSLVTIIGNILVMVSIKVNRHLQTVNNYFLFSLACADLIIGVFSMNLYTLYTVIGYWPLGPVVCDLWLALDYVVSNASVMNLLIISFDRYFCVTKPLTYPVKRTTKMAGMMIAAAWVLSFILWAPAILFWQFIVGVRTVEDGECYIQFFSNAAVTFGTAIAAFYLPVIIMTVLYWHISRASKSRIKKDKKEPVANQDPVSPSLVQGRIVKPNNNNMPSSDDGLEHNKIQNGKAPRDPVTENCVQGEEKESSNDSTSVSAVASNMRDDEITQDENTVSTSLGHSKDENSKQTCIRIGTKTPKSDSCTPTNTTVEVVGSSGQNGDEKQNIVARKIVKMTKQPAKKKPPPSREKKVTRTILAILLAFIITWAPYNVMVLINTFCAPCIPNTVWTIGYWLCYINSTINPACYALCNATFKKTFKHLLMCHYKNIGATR

[2] = target: M3 receptor (Homo sapiens, UniProt P20309); settings: selective effect on M receptor subtypes; cited from earlier work
[3] = Dynamic vapor sorption (DVS); assay type: physicochemical; settings: at RH 80% humidity
Protocol: The dynamic vapor sorption and desorption analysis was performed on the IGA SORP (Hidenlsochema) instrument. The samples were tested in gradient mode. The test was performed in a humidity range of 0% to 90%, with an incremental humidity between each gradient of 10%. For each gradient, the shortest test time was 30 min, and the longest test time was 120 min. There is a time interval of 3 min for collecting data in the system.

[4] = Stability test in 40° C./75% RH chamber with XRPD detection; assay type: physicochemical; settings: bottle sealed with filter paper, after 3 days
Protocol: The solid samples obtained were analyzed with an X-ray powder diffraction analyzer (Bruker D8 advance) equipped with a LynxEye detector. The samples was scanned with a 20 scanning angle from 3° to 40°, a scanning step of 0.02°, a tube voltage of 40 KV and a tube current of 40 mA. The sample pan used for sample measurement is a zero background sample pan.
The bottle was sealed with filter paper, and put into a 40° C./75% RH chamber for stability test. After 3 days, the sample was taken out for XRPD detection.
About 10 mg of Crystal B was weighed in an 8 mL sample bottle. The bottle was sealed with filter paper, and put into a 40° C./75% RH chamber for stability test. After 3 days, the sample was taken out for XRPD detection.

Chain of M3 receptor (P20309 whole entry): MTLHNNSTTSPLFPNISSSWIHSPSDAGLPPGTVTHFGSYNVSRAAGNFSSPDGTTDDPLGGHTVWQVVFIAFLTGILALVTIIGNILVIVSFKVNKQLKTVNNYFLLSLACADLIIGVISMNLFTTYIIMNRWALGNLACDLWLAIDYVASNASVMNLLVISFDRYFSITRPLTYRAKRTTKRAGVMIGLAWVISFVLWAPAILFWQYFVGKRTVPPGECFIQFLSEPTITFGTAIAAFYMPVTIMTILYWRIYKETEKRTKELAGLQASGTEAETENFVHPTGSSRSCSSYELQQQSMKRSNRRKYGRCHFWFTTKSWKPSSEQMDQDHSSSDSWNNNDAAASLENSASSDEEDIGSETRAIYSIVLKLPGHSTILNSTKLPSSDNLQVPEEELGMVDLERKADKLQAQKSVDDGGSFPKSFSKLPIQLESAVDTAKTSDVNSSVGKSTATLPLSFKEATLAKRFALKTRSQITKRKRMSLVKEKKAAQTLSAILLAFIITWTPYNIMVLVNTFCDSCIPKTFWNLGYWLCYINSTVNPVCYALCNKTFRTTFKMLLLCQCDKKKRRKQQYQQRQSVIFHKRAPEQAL

## O[C@@](CO[C@H]1C[N+]2(CCCOc3ccccc3)CCC1CC2)(c1ccccc1)C1CCCC1.[Br-] [Compound I, (2R,3R)-3-[(2-cyclopentyl-2-hydroxy-2-phenyl)ethoxy]-1-(3-phenoxypropyl)-1-azabicyclo[2,2,2]octylonium bromide]
[1]
  effect on M2 receptor: weak effect
[2]
  effect on M3 receptor: strong effect

## O[C@@](CO[C@H]1C[N+]2(CCCOc3ccccc3)CCC1CC2)(c1ccccc1)C1CCCC1.[Br-] [Crystal B]
[3]
  hygroscopic weight increment: 2.58%
[4]
  crystal form change by XRPD detection after stability test: did not change
